In patent US11266643B2, “Triaryl compounds for treatment of PD-L1 diseases” (CHEMOCENTRYX, INC., priority 2019, dated 2022):

Molecular target: human PD-L1 (Homo sapiens (Human), UniProt Q9NZQ7)
Test: Enzyme-Linked Immunosorbent Assay (ELISA), PD-1/PD-L1 binding
Settings: PD-1/PD-L1 ELISA, human PD-L1 coated plates, Table 1
How it was run: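 Plates coated with […] human PD-L1 overnight at 4° C, blocked, then 1:5 serial compound dilutions added with human PD-1 […] 0.31 μg/mL for 1 h at 37° C. Bound PD-1 detected with streptavidin-HRP and TMB (20 min, 37° C); absorbance read at 450 nm after H2SO4 stop.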

human PD-L1, sequence (Q9NZQ7 19-239): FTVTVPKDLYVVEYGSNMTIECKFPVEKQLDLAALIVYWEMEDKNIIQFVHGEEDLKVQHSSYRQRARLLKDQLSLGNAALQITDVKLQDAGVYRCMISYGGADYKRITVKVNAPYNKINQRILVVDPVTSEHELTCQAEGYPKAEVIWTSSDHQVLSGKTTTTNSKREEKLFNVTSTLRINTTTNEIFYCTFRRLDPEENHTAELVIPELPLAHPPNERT

| SMILES | IC50 [µM] |
| --- | --- |
| COc1cc(-c2cccc(-c3cccc(NC(=O)c4cc(C(=O)O)[nH]n4)c3C)c2C)cc(F)c1CN [Example 1.304] | 1 to 10 |
| COc1cc(-c2cccc(-c3cccc(NC(=O)c4ccc(C(=O)NCC(=O)O)cn4)c3C)c2C)cc(F)c1CN [Example 1.305] | < 0.01 |
| COc1cc(-c2cccc(-c3cccc(NC(=O)c4ccc(C(=O)N(C)C)cn4)c3C)c2C)cc(F)c1CN [Example 1.306] | < 0.01 |
| COc1cc(-c2cccc(-c3cccc(NC(=O)c4cnc(CC(N)=O)cn4)c3C)c2C)cc(F)c1CN [Example 1.307] | < 0.01 |
| COc1cc(-c2cccc(-c3cccc(NC(=O)c4cnc(CC(=O)O)cn4)c3C)c2C)cc(F)c1CN [Example 1.309] | < 0.01 |
| COc1cc(-c2cccc(-c3cccc(NC(=O)c4ccc(CC(N)=O)cn4)c3C)c2C)cc(F)c1CN [Example 1.310] | < 0.01 |
| COc1cc(-c2cccc(-c3cccc(NC(=O)c4cccn(C)c4=O)c3C)c2C)cc(F)c1CN [Example 1.311] | < 0.01 |
| COc1cc(-c2cccc(-c3cccc(NC(=O)C4CN(CC(=O)O)CCO4)c3C)c2C)cc(F)c1CN (stereo not shown) [Example 1.314] | 0.01 to 1 |
| COc1cc(-c2cccc(-c3cccc(NC(=O)C4CN(C)CCO4)c3C)c2C)cc(F)c1CN (stereo not shown) [Example 1.315] | 0.01 to 1 |
| COc1cc(-c2cccc(-c3cccc(Nc4nccc5cccnc45)c3C)c2C)cc(F)c1CN1CC(C(=O)O)C1 [Example 1.318] | 0.01 to 1 |
| COc1cc(-c2cccc(-c3cccc(NC(=O)[C@H]4COCCN4)c3C)c2C)cc(F)c1CN [Example 1.319] | 0.01 to 1 |
| COc1cc(-c2cccc(-c3cccc(NC(=O)c4cnc(C(=O)O)cn4)c3C)c2C)cc(F)c1CN [Example 1.322] | < 0.01 |
| COc1cc(-c2cccc(-c3cccc(NC(=O)C4CNCCO4)c3C)c2C)cc(F)c1CN (stereo not shown) [Example 1.323] | 0.01 to 1 |
| COc1cc(-c2cccc(-c3cccc(NC(=O)C4CNCCO4)c3C)c2C)cc(F)c1CNCCO (stereo not shown) [Example 1.324] | 0.01 to 1 |
| COC(=O)Cc1ccc(C(=O)Nc2cccc(-c3cccc(-c4cc(F)c(CN)c(OC)c4)c3C)c2C)nc1 [Example 1.331] | < 0.01 |
| COc1cc(-c2cccc(-c3cccc(NC(=O)c4ccc(C(=O)O)cn4)c3C)c2C)cc(F)c1CNCCO [Example 1.333] | 0.01 to 1 |
| COC(=O)c1ccc(C(=O)Nc2cccc(-c3cccc(-c4cc(F)c(CNCCO)c(OC)c4)c3C)c2C)nc1 [Example 1.334] | 0.01 to 1 |
| COc1cc(-c2cccc(-c3cccc(NC(=O)c4ccc(CC(=O)O)cn4)c3C)c2C)cc(F)c1CN [Example 1.335] | 0.01 to 1 |
| COc1cc(-c2cccc(-c3cccc(NC(=O)C4CCCO4)c3C)c2C)cc(F)c1CN[C@@](C)(CO)C(=O)O (stereo partly shown) [Example 1.336] | 1 to 10 |
| COc1cc(-c2cccc(-c3cccc(NC(=O)c4ccncn4)c3C)c2C)cc(F)c1CNCCO [Example 1.338] | < 0.01 |

| SMILES | IC50 [µM] |
| --- | --- |
| COc1cc(-c2cccc(-c3cccc(NC(=O)c4ccncn4)c3C)c2C)cc(F)c1CNCC(=O)O [Example 1.339] | 0.01 to 1 |
| COc1cc(-c2cccc(-c3cccc(NC(=O)C4CCCO4)c3C)c2C)cc(F)c1CN1CC(C(=O)O)C1 (stereo not shown) [Example 1.341] | 0.01 to 1 |
| COc1cc(-c2cccc(-c3cccc(NC(=O)c4ccccn4)c3C)c2C)cc(F)c1C(C)N (stereo not shown) [Example 1.344] | 0.01 to 1 |
| COc1cc(-c2cccc(-c3cccc(NC(=O)c4ccncn4)c3C)c2C)cc(F)c1CNCCCC(=O)O [Example 1.345] | < 0.01 |
| COc1cc(-c2cccc(-c3cccc(NC(=O)C4CCCCN4)c3C)c2C)cc(F)c1CN1CC(C(=O)O)C1 (stereo not shown) [Example 1.350] | 1 to 10 |
| COc1cc(-c2cccc(-c3cccc(NC(=O)c4ccc(C(=O)O)cn4)c3C)c2C)cc(F)c1CN [Example 1.352] | 0.01 to 1 |
| COC(=O)c1ccc(C(=O)Nc2cccc(-c3cccc(-c4cc(F)c(CN)c(OC)c4)c3C)c2C)nc1 [Example 1.353] | 0.01 to 1 |
| COc1cc(-c2cccc(-c3cccc(NC(=O)c4ccccn4)c3C)c2C)cc(F)c1CN1CCC(C(=O)O)CC1 [Example 1.358] | 0.01 to 1 |
| COc1cc(-c2cccc(-c3cccc(NC(=O)c4ccccn4)c3C)c2C)cc(F)c1CN1CC(C)(C(=O)O)C1 [Example 1.360] | < 0.01 |
| COc1cc(-c2cccc(-c3cccc(NC(=O)c4ccccn4)c3C)c2C)cc(F)c1CN1CCC2(C1)NC(=O)NC2=O (stereo not shown) [Example 1.362] | 0.01 to 1 |
| COc1cc(-c2cccc(-c3cccc(NC(=O)C4CCCCO4)c3C)c2C)cc(F)c1CN (stereo not shown) [Example 1.363] | 0.01 to 1 |
| COc1cc(-c2cccc(-c3cccc(NC(=O)c4ccccn4)c3C)c2C)cc(F)c1CN1CCOC[C@@H]1CO [Example 1.372] | 0.01 to 1 |
| COc1cc(-c2cccc(-c3cccc(NC(=O)c4ccccn4)c3C)c2C)cc(F)c1CN1CCOC[C@H]1CO [Example 1.373] | 0.01 to 1 |
| COc1cc(-c2cccc(-c3cccc(NC(=O)c4ccccn4)c3)c2C)cc(F)c1CN1CC(C(=O)O)C1 [Example 1.375] | 0.01 to 1 |
| COc1cc(-c2cccc(-c3cccc(NC(=O)c4ccccn4)c3C)c2C)cc(F)c1CNC(CO)CO [Example 1.376] | 0.01 to 1 |
| COc1cc(-c2cccc(-c3cccc(NC(=O)c4ccccn4)c3C)c2C)cc(F)c1CN1CCCC[C@@H]1C(=O)O [Example 1.377] | 1 to 10 |
| COc1cc(-c2cccc(-c3cccc(NC(=O)c4ccccn4)c3C)c2C)cc(F)c1CNC(CO)(CO)CO [Example 1.379] | < 0.01 |
| COc1cc(-c2cccc(-c3cccc(NC(=O)c4ccccn4)c3C)c2C)cc(F)c1CN1CCCC[C@H]1C(=O)O [Example 1.380] | 0.01 to 1 |
| COc1cc(-c2cccc(-c3cccc(NC(=O)c4ccccn4)c3C)c2C)cc(F)c1CNCC(=O)O [Example 1.385] | 0.01 to 1 |
| COc1cc(-c2cccc(-c3cccc(NC(=O)c4cccc(N)n4)c3C)c2C)cc(F)c1CN [Example 1.386] | 0.01 to 1 |

Other lines, results leading:

| IC50 [µM] | SMILES |
| --- | --- |
| < 0.01 | COc1cc(-c2cccc(-c3cccc(NC(=O)c4cc(N)ncn4)c3C)c2C)cc(F)c1CN1CC(C(=O)O)C1 [Example 1.320] |
| < 0.01 | COc1cc(-c2cccc(-c3cccc(NC(=O)c4ccnc(C)n4)c3C)c2C)cc(F)c1CN1CC(C(=O)O)C1 [Example 1.321] |
| < 0.01 | COc1cc(-c2cccc(-c3cccc(NC(=O)c4cnc(CO)cn4)c3C)c2C)cc(F)c1CN1CC(C(=O)O)C1 [Example 1.326] |
| < 0.01 | COc1cc(-c2cccc(-c3cccc(NC(=O)c4cncc(N)n4)c3C)c2C)cc(F)c1CN1CC(C(=O)O)C1 [Example 1.327] |
| < 0.01 | COc1cc(-c2cccc(-c3cccc(NC(=O)c4cnc(N)cn4)c3C)c2C)cc(F)c1CN1CC(C(=O)O)C1 [Example 1.332] |
| < 0.01 | COc1cc(-c2cccc(-c3cccc(NC(=O)c4ccncn4)c3C)c2C)cc(F)c1CN1CC(O)C1 [Example 1.337] |
| < 0.01 | COc1cc(-c2cccc(-c3cccc(NC(=O)c4ccncn4)c3C)c2C)cc(F)c1CN1CC(C)(C(=O)O)C1 [Example 1.340] |
| < 0.01 | COc1cc(-c2cccc(-c3cccc(NC(=O)c4ccc(CO)cn4)c3C)c2C)cc(F)c1CN1CC(C(=O)O)C1 [Example 1.342] |
| 0.01 to 1 | COc1cc(-c2cccc(-c3cccc(NC(=O)c4nccs4)c3C)c2C)cc(F)c1CN1CC(C(=O)O)C1 [Example 1.346] |
| 0.01 to 1 | COc1cc(-c2cccc(-c3cccc(NC(=O)c4ccnc(N)n4)c3C)c2C)cc(F)c1CN1CC(C(=O)O)C1 [Example 1.347] |
| 0.01 to 1 | COc1cc(-c2cccc(-c3cccc(NC(=O)c4ccccn4)c3C)c2F)cc(F)c1CN1CC(C(=O)O)C1 [Example 1.348] |
| 0.01 to 1 | COc1cc(-c2cccc(-c3cccc(NC(=O)c4ncco4)c3C)c2C)cc(F)c1CN1CC(C(=O)O)C1 [Example 1.349] |
| < 0.01 | COc1ccc(C(=O)Nc2cccc(-c3cccc(-c4cc(F)c(CN5CC(C(=O)O)C5)c(OC)c4)c3C)c2C)nc1 [Example 1.351] |
| 0.01 to 1 | COc1cc(-c2cccc(-c3cccc(NC(=O)c4ccccn4)c3C)c2C)cc(F)c1CN1CCC[C@@H](C(=O)O)C1 [Example 1.354] |
| 0.01 to 1 | COc1cc(-c2cccc(-c3cccc(NC(=O)c4ccccn4)c3C)c2C)cc(F)c1CN1CCC[C@H](C(=O)O)C1 [Example 1.355] |
| 0.01 to 1 | COc1cc(-c2cccc(-c3cccc(NC(=O)c4ccccn4)c3C)c2C#N)cc(F)c1CN1CC(C(=O)O)C1 [Example 1.356] |
| < 0.01 | COc1cc(-c2cccc(-c3cccc(NC(=O)c4cnccn4)c3C)c2C)cc(F)c1CN1CC(C(=O)O)C1 [Example 1.357] |
| 0.01 to 1 | COc1cc(-c2cccc(-c3cccc(NC(=O)c4ccc(F)cn4)c3C)c2C)cc(F)c1CN1CC(C(=O)O)C1 [Example 1.359] |
| 0.01 to 1 | COc1cc(-c2cccc(-c3cccc(NC(=O)c4ncc(C)cn4)c3C)c2C)cc(F)c1CN1CC(C(=O)O)C1 [Example 1.364] |
| < 0.01 | COc1cc(-c2cccc(-c3cccc(NC(=O)c4ccccn4)c3C)c2Cl)cc(F)c1CN1CC(C(=O)O)C1 [Example 1.365] |
| < 0.01 | COc1cc(-c2cccc(-c3cccc(NC(=O)c4ccccn4)c3C)c2C)cc(F)c1CN1CC[C@@H](C(=O)O)C1 [Example 1.366] |
| < 0.01 | COc1cc(-c2cccc(-c3cccc(NC(=O)c4ccncn4)c3C)c2C)cc(F)c1CN1CC(C(=O)O)C1 [Example 1.367] |
| 0.01 to 1 | COc1cc(-c2cccc(-c3cccc(NC(=O)c4ccccn4)c3C)c2C)cc(F)c1CN1CC[C@H](C(=O)O)C1 [Example 1.368] |
| 0.01 to 1 | COc1cc(-c2cccc(-c3cccc(NC(=O)c4ccc(Cl)cn4)c3C)c2C)cc(F)c1CN1CC(C(=O)O)C1 [Example 1.369] |
| 0.01 to 1 | COc1cc(-c2cccc(-c3cccc(NC(=O)c4ccccn4)c3F)c2C)cc(F)c1CN1CC(C(=O)O)C1 [Example 1.370] |
| < 0.01 | COc1cc(-c2cccc(-c3cccc(NC(=O)c4ccc(C)cn4)c3C)c2C)cc(F)c1CN1CC(C(=O)O)C1 [Example 1.371] |
| < 0.01 | COc1cc(-c2cccc(-c3cccc(NC(=O)c4ccccn4)c3C)c2C)cc(F)c1CN1CC(C(=O)O)C1 [Example 1.381] |
